Columns and labels:
[1] = system: BEAS-2B cells; test: Toxicity: compound concentration needed to induce greater than 50 percent of cell loss; format: cell-based, human; conditions: 18 hours incubation
Method in brief: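 Reported value is the concentration giving greater than 50 percent cell loss, grouped into bins (≥25 μM; between 1 and 25 μM; ≤1 μM as "+++"). Measured by high-content imaging of DAPI-stained BEAS-2B TFEB-EGFP cells fixed after 18 h compound exposure.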

[2] = system: TFEB; test: High content screen measuring TFEB nuclear accumulation (TFEB nuclear/cytosol ratio) in BEAS-2B cells stably expressing TFEB-EGFP; format: cell-based, human; conditions: 18 hours incubation
Method in brief: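 Readout: lowest compound concentration giving a 25% rise in nuclear/cytosol TFEB-GFP ratio, from DAPI-masked nuclear and mask-expanded cytosolic signals. Cells (BEAS-2B, TFEB-EGFP stable, ~2300–2500/well) rested 8 hours, then treated 18 hours with compound serial dilutions in 2% FBS medium before PFA fixation and DAPI staining.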

| SMILES | toxicity (compound concentration needed to induce greater than 50 percent of cell loss) [1] | efficacy (minimal compound concentration needed to increase TFEB nuclear/cytosol ratio by 25%) [2] |
| --- | --- | --- |
| FC(F)(F)c1cccc(Nc2nc(-c3ccncc3)nc3ccccc23)c1 [Compound 189] | + (cell loss of greater than 50 percent at a concentration that equals or is greater than 25 μM was represented as) | ++ (“++” equals between ≤25 μM and >1 μM) |
| COc1cccc(Nc2nc(-c3ccncc3)nc3ccccc23)c1 [Compound 190] | + (cell loss of greater than 50 percent at a concentration that equals or is greater than 25 μM was represented as) | ++ (“++” equals between ≤25 μM and >1 μM) |
| c1ccc2c(Nc3ccc4[nH]nnc4c3)nc(-c3ccncc3)nc2c1 [Compound 191] | + (cell loss of greater than 50 percent at a concentration that equals or is greater than 25 μM was represented as) | +++ (“+++” equals ≤1 μM) |
| Cc1nc2ccc(Nc3nc(-c4ccncc4)nc4ccccc34)cc2s1 [Compound 192] | + (cell loss of greater than 50 percent at a concentration that equals or is greater than 25 μM was represented as) | +++ (“+++” equals ≤1 μM) |
| c1ccc2c(Nc3ccc4[nH]cnc4c3)nc(-c3ccncc3)nc2c1 [Compound 193] | ++ (cell loss of greater than 50 percent at a concentration less than 25 μM and greater than 1 μM was represented as) | ++ (“++” equals between ≤25 μM and >1 μM) |
| Fc1cccc(Nc2nc(-c3ccncc3)nc3ccncc23)c1 [Compound 194] | + (cell loss of greater than 50 percent at a concentration that equals or is greater than 25 μM was represented as) | +++ (“+++” equals ≤1 μM) |
| Cc1ccc(-c2nc(Nc3cc(F)ccc3C)c3ccccc3n2)cc1 [Compound 195] | + (cell loss of greater than 50 percent at a concentration that equals or is greater than 25 μM was represented as) | + (“+” equals >25 μM) |
| Fc1ccc(Nc2nc(-c3cccnc3)nc3ccccc23)cc1F [Compound 196] | + (cell loss of greater than 50 percent at a concentration that equals or is greater than 25 μM was represented as) | + (“+” equals >25 μM) |
| Cc1ccc(Nc2nc(-c3ccc(C)cc3)nc3ccccc23)cc1 [Compound 197] | + (cell loss of greater than 50 percent at a concentration that equals or is greater than 25 μM was represented as) | + (“+” equals >25 μM) |
| COc1cc(-c2nc(Nc3cc(F)ccc3C)c3ccccc3n2)cc(OC)c1OC [Compound 198] | + (cell loss of greater than 50 percent at a concentration that equals or is greater than 25 μM was represented as) | + (“+” equals >25 μM) |
| Cc1ccc(Nc2nc(-c3ccccc3Cl)nc3ccccc23)c(C)c1 [Compound 199] | + (cell loss of greater than 50 percent at a concentration that equals or is greater than 25 μM was represented as) | + (“+” equals >25 μM) |
| Cc1ccc(Nc2nc(-c3ccc([N+](=O)[O-])cc3)nc3ccccc23)c(C)c1 [Compound 200] | + (cell loss of greater than 50 percent at a concentration that equals or is greater than 25 μM was represented as) | ++ (“++” equals between ≤25 μM and >1 μM) |
| Cc1ccc(-c2nc(Nc3ccccc3F)c3ccccc3n2)cc1 [Compound 201] | + (cell loss of greater than 50 percent at a concentration that equals or is greater than 25 μM was represented as) | + (“+” equals >25 μM) |
| Cc1ccc(-c2nc(Nc3ccc(C)c(F)c3)c3ccccc3n2)cc1 [Compound 202] | + (cell loss of greater than 50 percent at a concentration that equals or is greater than 25 μM was represented as) | + (“+” equals >25 μM) |
| COc1cc(-n2c(=O)c3ccccc3n(CC(=O)Nc3ccc(C(C)C)cc3)c2=O)cc(OC)c1OC [Compound 214] | + (cell loss of greater than 50 percent at a concentration that equals or is greater than 25 μM was represented as) | + (“+” equals >25 μM) |
| COc1ccc(-n2c(=O)c3ccc(C(=O)NCCc4ccccc4)cc3n(Cc3cccc(F)c3)c2=O)cc1 [Compound 215] | ++ (cell loss of greater than 50 percent at a concentration less than 25 μM and greater than 1 μM was represented as) | ++ (“++” equals between ≤25 μM and >1 μM) |
| CCC(C)NC(=O)Cn1c(=O)n(-c2ccc(OC)cc2)c(=O)c2ccc(C(=O)NCc3ccc(C)cc3)cc21 (stereo not shown) [Compound 216] | + (cell loss of greater than 50 percent at a concentration that equals or is greater than 25 μM was represented as) | + (“+” equals >25 μM) |
| O=C(Cn1c(=O)n(CC2CCCO2)c(=O)c2ccc(C(=O)NCCc3ccccc3)cc21)Nc1ccc(Br)cc1 (stereo not shown) [Compound 217] | + (cell loss of greater than 50 percent at a concentration that equals or is greater than 25 μM was represented as) | + (“+” equals >25 μM) |
| COc1ccc(-n2c(=O)c3ccc(C(=O)NCc4ccc(C)cc4)cc3n(CC(=O)Nc3cc(C)[nH]n3)c2=O)cc1 [Compound 218] | + (cell loss of greater than 50 percent at a concentration that equals or is greater than 25 μM was represented as) | + (“+” equals >25 μM) |
| Cc1ccc(NC(=O)Cn2c(=O)n(-c3ccccc3)c(=O)c3ccc(C(=O)NCc4ccco4)cc32)cc1 [Compound 219] | + (cell loss of greater than 50 percent at a concentration that equals or is greater than 25 μM was represented as) | + (“+” equals >25 μM) |
| COc1ccc(NC(=O)Cn2c(=O)n(-c3ccc(C)cc3)c(=O)c3ccccc32)cc1 [Compound 220] | + (cell loss of greater than 50 percent at a concentration that equals or is greater than 25 μM was represented as) | + (“+” equals >25 μM) |
| COc1ccc(NC(=O)Cn2c(=O)n(-c3ccc(CC(=O)NCCc4ccccc4)cc3)c(=O)c3ccccc32)cc1 [Compound 221] | + (cell loss of greater than 50 percent at a concentration that equals or is greater than 25 μM was represented as) | + (“+” equals >25 μM) |
| COc1ccc(-n2c(=O)c3ccc(C(=O)NCCc4ccccc4)cc3n(CC(=O)Nc3ccc(C)cc3)c2=O)cc1 [Compound 222] | ++ (cell loss of greater than 50 percent at a concentration less than 25 μM and greater than 1 μM was represented as) | ++ (“++” equals between ≤25 μM and >1 μM) |
| Cc1cc(C)cc(-n2c(=O)c3ccccc3n(CC(=O)Nc3c(C)cc(C)cc3C)c2=O)c1 [Compound 223] | + (cell loss of greater than 50 percent at a concentration that equals or is greater than 25 μM was represented as) | + (“+” equals >25 μM) |
| Cn1c(=O)c2ccccc2n(CC(=O)Nc2ccccc2)c1=O [Compound 224] | + (cell loss of greater than 50 percent at a concentration that equals or is greater than 25 μM was represented as) | + (“+” equals >25 μM) |
| Cn1c(=O)c2ccccc2n(CC(=O)Nc2ccc(F)cc2)c1=O [Compound 225] | + (cell loss of greater than 50 percent at a concentration that equals or is greater than 25 μM was represented as) | + (“+” equals >25 μM) |
| CCn1c(=O)c2ccccc2n(CC(=O)Nc2ccccc2)c1=O [Compound 226] | + (cell loss of greater than 50 percent at a concentration that equals or is greater than 25 μM was represented as) | + (“+” equals >25 μM) |
| O=C(Cn1c(=O)n(-c2ccccc2)c(=O)c2ccccc21)Nc1cccc(Cl)c1 [Compound 227] | + (cell loss of greater than 50 percent at a concentration that equals or is greater than 25 μM was represented as) | + (“+” equals >25 μM) |
| CN(C)CCn1c(=O)n(-c2ccccc2)c(=O)c2ccccc21 [Compound 228] | + (cell loss of greater than 50 percent at a concentration that equals or is greater than 25 μM was represented as) | + (“+” equals >25 μM) |

Reference: US12286442B2, “Methods and materials for increasing transcription factor eb polypeptide levels” (University of Pittsburgh—Of the Commonwealth System of …, priority 2019, dated 2025)
